This assay deals with PCC deficient cells. On the procedure: Control cells and PCC cells obtained from patients with PA and generated through CRISPR/CAS9 technology are grown in media with and without succinate supplementation and the metabolite profile of cell extracts is determined by metabolomic techniques. First, PCC deficient cells are grown in T-25 flasks in standard DMEM medium with and without supplemental succinate (0.1-2 mmol/L). Cells are harvested, lysed by sonication and intracellular concentrations of TCA cycle intermediates are measured by liquid chromatography-mass spectrometry (LC-MS)/MS. Next, flux through the TCA cycle is measured by incorporation of radiolabel from uniformly labeled ^14C-palmitate into TCA cycle intermediates after incubation with PPC deficient and control cells. PCC deficient cell lines are grown in DMEM complete media and transferred to 6-well plates at a seeding density of ˜200,000 cells/well. The media in the wells is changed after 24 hours to DMEM media containing 5% dialyzed fetal bovine serum (FBS). After approximately one hour, the first time point (180 minutes) receives DMEM 5% dialyzed FBS containing universally labeled palmitate with ^13C […]. The cells are incubated at 37° C., 4% CO2 for the following time points: 180 minutes, 60 minutes, 30 minutes, 10 minutes and 0 minutes. The 0 minute time point receives no isotopic labeling.

The structures appear in SMILES notation.

Consider `O=C(O)CCC(=O)O` [succinate], for which the “decreased level of TCA cycle intermediates” value (cell lines from patients with PA or MMA, succinate supplementation 0.1-2 mmol/L) is “expected to be reversed”. For the same compound, the “impaired incorporation of label from palmitate through the TCA cycle into protein” value (succinate supplementation) is listed as “expected to be reversed”.

The record behind these values is patent US12290500B2, “Anaplerotic agents for treatment of disorders of propionate and long chain fat metabolism” (University of Pittsburgh—Of the Commonwealth System of …, priority 2016, dated 2025).
